Measurements taken from ChEMBL document CHEMBL1201862, “PubChem BioAssay data set” (2004).
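Step 1: Grow cells in 96-well plates. Step 2: Expose to compound for 48 hours at 5 concentrations. Step 3: Interpolate endpoints linearly; if unreached, use highest concentration. GI50 marks 50% less growth.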 The source made the active and inactive calls. Rule as the data show it: active = GI50 up to about 1.1 µM and inactive = higher.

Key:
Assay in all cases: NCI anticancer screen, dose series, 48 h
UACC-257 = system: UACC-257
CCRF-CEM = system: CCRF-CEM
SF-268 = system: SF-268
OVCAR-3 = system: OVCAR-3
SF-295 = system: SF-295
KM12 = system: KM12
SK-OV-3 = system: SK-OV-3
COLO 205 = system: COLO 205
M14 = system: M14
MOLT-4 = system: MOLT-4
NCI-H23 = system: NCI-H23
HCC 2998 = system: HCC 2998
SW-620 = system: SW-620
LXFL 529 = system: LXFL 529
Malme-3M = system: Malme-3M
A498 = system: A498
LOX IMVI = system: LOX IMVI
HL-60 = system: HL-60

Measured: GI50

O=C(/C=C/c1cccc([N+](=O)[O-])c1)c1ccc([N+](=O)[O-])cc1
inactive: UACC-257 > 100 µM | CCRF-CEM > 100 µM | SF-268 > 100 µM | OVCAR-3 > 100 µM | SF-295 > 100 µM | KM12 > 100 µM | SK-OV-3 > 100 µM | COLO 205 > 100 µM | M14 > 100 µM | MOLT-4 > 100 µM | NCI-H23 > 100 µM | HCC 2998 > 100 µM | SW-620 > 100 µM | LXFL 529 > 100 µM | Malme-3M > 100 µM | A498 > 100 µM | LOX IMVI > 100 µM | HL-60 > 100 µM
